Counter-ions that a name gives are not always drawn. Where only a bound is given, the exact number is not on record here.

In the first experiment the test system is amyloid β production in transfected H4 (human neuroglioma) cells stably expressing APP constructs. As to the kind of experiment: In vitro cell-based assay of inhibitors of amyloid β production (ELISA). The conditions noted are these: Homo sapiens, 16 h, transfected H4 cells expressing APP, approximately 16 hours incubation, amyloid β in medium by ELISA; read-out: ACTIVITY (IC50, inhibition of amyloid β production). The procedure, abridged: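 Aβ secreted into the medium was determined by a two-antibody ELISA specific for the Aβ C-terminus, calibrated with known Aβ amounts. Before that, compounds (10-100 μM initially) were left on the cells for roughly 16 hours.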
(In an ELISA, binding on a coated surface is turned into a signal by an enzyme label.)
Consider `C[C@H](C(=O)NC1CCC(C(C)(C)C)CC1)N(c1cc(Cl)ccc1F)S(=O)(=O)c1ccc(Cl)cc1` (some centres unmarked) [Example 1316], for which the IC50 is over 500 nM.

The experiment is the same for the next values; noted with them: Homo sapiens, 16 h, transfected H4 cells stably expressing APP; approx. 16 h incubation; amyloid β in medium by ELISA; read-out: ACTIVITY (IC50, inhibition of amyloid β production).
For `O=C(C1CC1c1ccccc1)N1CCCCC1CCOc1ccccc1CN(c1cc(F)ccc1F)S(=O)(=O)c1ccc(Cl)cc1` (centres unmarked) [Example 780, 4-chloro-N-(2,5-difluorophenyl)-N-[2-(2-{1-[(2-phenylcyclopropyl)carbonyl]-2-piperidinyl}ethoxy)benzyl]benzenesulfonamide], the IC50 lay in the range of 100 to 500 nM.

The same experiment, now with this note: Homo sapiens, 16 h, transfected H4 cells stably expressing APP; approximately 16 hours incubation; amyloid β in medium by ELISA; Table B; read-out: ACTIVITY (IC50, inhibition of amyloid β production).
For `CC(c1ccccc1OCCCN(C)C(=O)CCC1CCCC1)N(c1cc(F)ccc1F)S(=O)(=O)c1ccc(Cl)cc1` (centres unmarked) [Example 428, N-{3-[2-(1-{[(4-chlorophenyl)sulfonyl]-2,5-difluoroanilino}ethyl)phenoxy]propyl}-3-cyclopentyl-N-methylpropanamide], the IC50 lay within 50 to 100 nM.

Staying with this experiment, now noted: Homo sapiens, 16 h, transfected H4 cells stably expressing APP; approximately 16 hours incubation; amyloid β in medium by ELISA; read-out: ACTIVITY (IC50, inhibition of amyloid β production).
Regarding `O=S(=O)(c1ccccc1)N(Cc1ccccc1OCCCN1CCC(O)C1)c1ccccc1` (centres unmarked) [Example 809, N-{2-[3-(3-hydroxy-1-pyrrolidinyl)propoxy]benzyl}-N-phenylbenzenesulfonamide hydrochloride], the IC50 fell in the range of 100 to 500 nM. Still for that read-out and setting: to `O=S(=O)(c1ccc(Cl)cc1)N(Cc1ccccc1OCCCNC1CC1)c1ccccc1` [Example 979, 4-chloro-N-{2-[3-(cyclopropylamino)propoxy]benzyl}-N-phenylbenzenesulfonamide hydrochloride] belongs over 500 nM; to `O=S(=O)(c1ccc(Cl)cc1)N(Cc1ccncc1)Cc1ccccc1OCCCN1CCCCC1` [Example 967, 4-chloro-N-{2-[3-(1-piperidinyl)propoxy]benzyl}-N-(4-pyridinylmethyl)benzenesulfonamide hydrochloride], over 500 nM; to `CC1(O)CCN(CCCOc2ccccc2CN(c2ccccc2)S(=O)(=O)c2ccc(Cl)cc2)CC1` [Example 965, 4-chloro-N-{2-[3-(4-hydroxy-4-methyl-1-piperidinyl)propoxy]benzyl}-N-phenylbenzenesulfonamide hydrochloride], over 500 nM.

Still in this experiment, the particulars now being: read-out: ACTIVITY (inhibitory concentration IC50, inhibition of amyloid β production).
Consider `CC(c1ccccc1OCCCN1CCCCC1)N(c1cc(F)ccc1F)S(=O)(=O)c1ccc(Cl)cc1` (centres unmarked) [Example 236, 4-Chloro-N-(2,5-difluorophenyl)-N-(1-{2-[3-(1-piperidinyl)propoxy]phenyl}ethyl)benzenesulfonamide Hydrochloride], for which the IC50 was in the range of 25 to 50 nM.

Still in this experiment, the particulars now being: transfected H4 cells stably expressing APP constructs; approximately 16 hours incubation; amyloid β in medium by ELISA; read-out: ACTIVITY (IC50, inhibition of amyloid β production).
`C[C@H](CCCS(=O)(=O)N(C)C1CCCC1)N(c1cc(Cl)ccc1Cl)S(=O)(=O)c1ccc(Cl)cc1` [Example 1215, 4-chloro-N-[2,5-dichlorophenyl]-N-[4-[[(N-cyclopentyl)methylamino]sulfonyl]-1(R)-methylbutyl]benzenesulfonamide]: the IC50 was in the range of 25 to 50 nM. Take `C[C@H](COC(=O)N(CCCn1ccnc1)CC1CC1)N(c1cc(Cl)ccc1CO)S(=O)(=O)c1ccc(Cl)cc1` [Example 1251, 4-Chloro-N-[5-chloro-2-(hydroxymethyl)phenyl]-N-[2-[[[N′-[3-(1H-imidazol-1-yl)propyl]-N′-cyclopropylmethylamino]carbonyl]oxy]-(R)-1-methylethyl]benzenesulfonamide]: the IC50 was at most 25 nM. For the molecule `CC(C)Oc1c(NCCC[C@@H](C)N(c2cc(Cl)ccc2F)S(=O)(=O)c2ccc(Cl)cc2)c(=O)c1=O` [Example 1122, 4-chloro-N-(5-chloro-2-fluorophenyl)-N-[4-(2-isopropoxy-3,4-dioxo-1-cyclobutenyl)amine-1(R)-methylbutyl]benzenesulfonamide], the IC50 lay in the range of 50 to 100 nM. Consider `C[C@H](CCSCC(=O)O)N(c1cc(Cl)ccc1Cl)S(=O)(=O)c1ccc(Cl)cc1` [Example 1181, (6R)-6-[(2,5-dichlorophenyl)-[(4-chlorophenyl)sulfonyl]-amino]-3-thioheptanoic acid], for which the IC50 is at most 25 nM.

Consider `C[C@H](COC(=O)NCCCn1ccnc1)N(c1cc(Cl)ccc1Cl)S(=O)(=O)c1ccc(Cl)cc1` [Example 1240, 4-Chloro-N-(2,5-dichlorophenyl)-N-[2-[[N′-[3-(1H-imidazol-1-yl)propylamino]carbonyl]oxy]-(R)-1-methylethyl]benzenesulfonamide], for which the IC50 is at most 25 nM.

Staying with this experiment, now noted: transfected H4 cells stably expressing APP; approx. 16 h incubation; amyloid β in medium by ELISA; read-out: ACTIVITY (IC50, inhibition of amyloid β production).
On to “2,4-dichloro-N-{3-[2-(1-{[(4-chlorophenyl)sulfonyl]-2,5-difluoroanilino}ethyl)phenoxy]propyl}-5-fluorobenzamide [Example 682]”, for which the IC50 lay within 100 to 500 nM. In the case of “N-{3-[2-({[(4-chlorophenyl)sulfonyl]-2,5-difluoroanilino}methyl)phenoxy]propyl}-4-iodo-N-methylbenzamide [Example 765]”, the IC50 lay within 100 to 500 nM. Still for that read-out and setting: to “methyl [[2-((1R)-1-{[(4-chlorophenyl)sulfonyl]-2,5-difluoroanilino}ethyl)benzyl]- [Example 798]” belongs 100 to 500 nM; to “N-{3-[2-(1-{[(4-chlorophenyl)sulfonyl]-2,5-difluoroanilino}ethyl)phenoxy]propyl}-N-methyl-1-naphthalenesulfonamide [Example 776]”, 100 to 500 nM. Same read-out and setting: to “N-{3-[2-(1-{[(4-chlorophenyl)sulfonyl]-2,5-difluoroanilino}ethyl)phenoxy]propyl}-3-methoxy-N-methylbenzamide [Example 786]” belongs 100 to 500 nM. The same measure, in the same setting: for “2-((1R)-1-{[(4-chlorophenyl)sulfonyl]-2,5-difluoroanilino}ethyl)benzyl 2-(4-chlorophenyl)ethylcarbamate [Example 731]” the value was 100 to 500 nM; for “4-chloro-N-{3-[2-(1-{[(4-chlorophenyl)sulfonyl]-2,5-difluoroanilino}ethyl)phenoxy]propyl}-N-methylbenzamide [Example 722]”, 100 to 500 nM. For the molecule “2,4-dichloro-N-{3-[2-(1-{[(4-chlorophenyl)sulfonyl]-2,5-difluoroanilino}ethyl)phenoxy]propyl}-5-fluoro-N-methylbenzamide [Example 750]”, the IC50 is 100 to 500 nM.

The experiment is the same for the next values; noted with them: transfected H4 cells stably expressing APP; approximately 16 hours incubation; amyloid β in medium by ELISA; Table B; read-out: ACTIVITY (IC50, inhibition of amyloid β production).
As to `COC(=O)CSCCc1cc(F)ccc1[C@@H](C)N(c1cc(F)ccc1F)S(=O)(=O)c1ccc(Cl)cc1` [Example 477, Methyl ({2-[2-((1R)-1-[[(4-chlorophenyl)sulfonyl]-2,5-difluoroanilino}ethyl)-5-fluorophenyl]ethyl}sulfanyl)acetate], the IC50 was in the range of 100 to 500 nM. In the case of `CONC(=O)COc1ccccc1C(C)N(c1cc(F)ccc1F)S(=O)(=O)c1ccc(Cl)cc1` (centres unmarked) [Example 382, [2-(1-{[(4-Chlorophenyl)sulfonyl]-2,5-difluoroanilino}ethyl)phenoxy]-N-methoxyacetamide], the IC50 lay within 50 to 100 nM.

For `COC(=O)C(N)CS(=O)(=O)Cc1cc(F)ccc1[C@@H](C)N(c1cc(F)ccc1F)S(=O)(=O)c1ccc(Cl)cc1` (stereo partly drawn) [Example 470, Methyl 2-amino-3-{[2-(1R)-1-{[(4-chlorophenyl)sulfonyl]-2,5-difluoroanilino}ethyl)-5-fluorobenzyl]sulfonyl}propanoate Hydrochloride], the IC50 was 50 to 100 nM.

As for `C[C@H](c1ccc(F)cc1CCCC(=O)NC1CCCCC1)N(c1cc(F)ccc1F)S(=O)(=O)c1ccc(Cl)cc1` [Example 496, 4-[2-((1R)-1-{[(4-chlorophenyl)sulfonyl]-2,5-difluoroanilino}ethyl)-5-fluorophenyl]-N-cyclohexylbutanamide], the IC50 lay within 100 to 500 nM.

Still in this experiment, the particulars now being: transfected H4 cells stably expressing APP; approximately 16 hours incubation; amyloid β in medium by ELISA; hydrochloride; read-out: ACTIVITY (IC50, inhibition of amyloid β production).
Turning to `C[C@@H](c1ccccc1OCCCn1ccnc1)N(c1cc(F)ccc1F)S(=O)(=O)c1ccc(Cl)cc1` [Example 861, 4-chloro-N-(2,5-difluorophenyl)-N-((1S)-1-{2-[3-(1H-imidazol-1-yl)propoxy]phenyl}ethyl)benzenesulfonamide hydrochloride], the IC50 lay within 100 to 500 nM.

The same experiment, now with this note: transfected H4 cells stably expressing APP; approximately 16 hours incubation; amyloid β in medium by ELISA; read-out: ACTIVITY (IC50, inhibition of amyloid β production).
For “N-{4-[2-(1-{[(4-chlorophenyl)sulfonyl]-2,5-difluoroanilino}ethyl)phenoxy]butyl}-3-cyclopentyl-N-ethylpropanamide [Example 943]”, the IC50 was over 500 nM. On the same count and under the same terms, for “[2-((1R)-1-{[(4-chlorophenyl)sulfonyl]-2,5-difluoroanilino}ethyl)-5-fluorophenyl]methanesulfonic acid [Example 1009]” the value was over 500 nM; for `C[C@H](c1ccc(F)cc1CCCC(=O)O)N(c1cc(F)ccc1F)S(=O)(=O)c1ccc(Cl)cc1` [Example 1072, 4-[2-((1R)-1-{[(4-chlorophenyl)sulfonyl]-2,5-difluoroanilino}ethyl)-5-fluorophenyl]butanoic acid], over 500 nM; for “N-{3-[2-({[(4-chlorophenyl)sulfonyl]-2,5-difluoroanilino}methyl)phenoxy]propyl}-2,3,4-trifluoro-N-methylbenzamide [Example 864]”, 100 to 500 nM. Same read-out and setting: for `C[C@H](c1ccc(F)cc1CCCCS(=O)(=O)N1CCS(=O)(=O)CC1)N(c1cc(F)ccc1F)S(=O)(=O)c1ccc(Cl)cc1` [Example 1071] the value was over 500 nM; for “N-{3-[2-({[(4-chlorophenyl)sulfonyl]-2,5-difluoroanilino}methyl)phenoxy]propyl}-N-methyl-1-naphthamide [Example 821]”, 100 to 500 nM.

The values are drawn from patent US6967196B1, “Sulfonamide compounds and uses thereof” (Bristol-Myers Squibb Company, priority 1999, dated 2005).
